Source: ChEMBL document CHEMBL1124833, “Topically active carbonic anhydrase inhibitors. 3. Benzofuran- and indole-2-sulfonamides” (J Med Chem, 1990)
≈ marks a conversion by molar mass, not a printed value.

Assays:
[1] = tested on: Oryctolagus cuniculus; experiment: In vivo intraocular pressure reduction was determined in rabbits after effective topical dose (duration expressed as number of time points, P<=0.05); format: functional, Eye
[2] = Extent of reaction with 5 equiv of reduced glutathione (GSH) between 16 and 22 hours at pH 7.4 and 37 degree C
[3] = species on record: Cavia porcellus; experiment: Number of animals showing dermal sensitization/ number of animals tested in Magnusson-Kligman assay.; format: functional
[4] = Extent of reaction with 20 equiv of reduced glutathione (GSH) in 20 hours at pH 7.4 and 37 degree C
[5] = Solubility; format: physicochemical; details: read-out: S
[6] = tested on: Oryctolagus cuniculus; experiment: METD(minimum effective topical dose of the compound) for ocular hypotensive activity in alpha-CT-rabbits; format: functional, Eye
[7] = molecular target: Carbonic anhydrase 2 (Homo sapiens, UniProt P00918)
Description: In vitro inhibition of human carbonic anhydrase II (0.1 nM).

[8] = species on record: Cavia porcellus; experiment: Number of animals showing dermal sensitization/ number of animals tested in Magnusson-Kligman assay; 15/40; format: functional
[9] = species on record: Cavia porcellus; experiment: Number of animals showing dermal sensitization/ number of animals tested in Magnusson-Kligman assay; 8/19; format: functional

Structure (SMILES) | GSH [2] [%] | GSH [4] [%] | solubility [5] [µg/mL] | IC50 [7] [µM] | Max IOP reduction [1] [mmHg] | No. of animals [3] | METD [6] [%] | No. of animals [8] | No. of animals [9]
NS(=O)(=O)c1cc2ccc(O)cc2s1 | 0 | 2.9 | 430 (≈ 1880 µM) |  | -5.5 | 0 | 0.05 |  | 
COc1ccc2cc(S(N)(=O)=O)n(C)c2c1 |  | 37 | 40 (≈ 166 µM) | 0.11 |  |  |  |  | 
COc1ccc2[nH]c(S(N)(=O)=O)cc2c1 |  |  | 150 (≈ 663 µM) | 0.016 |  |  |  |  | 
CC(C)(C)C(=O)Oc1ccc2cc(S(N)(=O)=O)oc2c1 |  |  |  |  | -5.3 |  | 0.5 |  | 
Cc1c(S(N)(=O)=O)oc2cc(O)ccc12 |  | 47 |  | 0.21 |  |  |  |  | 
NS(=O)(=O)c1cc2cc3c(cc2[nH]1)OCO3 |  |  | 50 (≈ 208 µM) | 0.025 |  |  |  |  | 
COc1ccc2cc(S(N)(=O)=O)[nH]c2c1 |  |  | 520 (≈ 2300 µM) | 0.06 |  |  |  |  | 
NS(=O)(=O)c1cc2cc(O)ccc2[nH]1 | 0.7 | 13 | 1900 (≈ 8950 µM) | 0.022 | -7.5 | 19 | 0.1 |  | 
NS(=O)(=O)c1cc2ccc(O)cc2[nH]1 | 2.5 | 17 | 4800 (≈ 22600 µM) | 0.03 | -5 |  | 0.5 |  | 
NS(=O)(=O)c1cc2ccccc2o1 | 0 | 10 | 480 (≈ 2430 µM) | 0.008 |  |  |  |  | 
NS(=O)(=O)c1cc2ccccc2[nH]1 | 0 |  | 850 (≈ 4330 µM) | 0.045 |  |  |  |  | 
CC(=O)Oc1ccc2cc(S(N)(=O)=O)sc2c1 |  |  |  |  | -5.3 |  | 0.1 |  | 
COc1ccc2cc(S(N)(=O)=O)n(S(=O)(=O)c3ccccc3)c2c1 |  |  |  | > 10 |  |  |  |  | 

Second part, led by results:

GSH [2] [%] | GSH [4] [%] | solubility [5] [µg/mL] | IC50 [7] [µM] | Structure (SMILES) | Max IOP reduction [1] [mmHg] | No. of animals [3] | METD [6] [%] | No. of animals [8] | No. of animals [9]
3.4 |  |  | 0.003 | CC(C)(C)C(=O)Oc1ccc2oc(S(N)(=O)=O)cc2c1 |  |  |  |  | 
 |  |  | 0.032 | CC(=O)Oc1ccc2cc(S(N)(=O)=O)[nH]c2c1 |  |  |  |  | 
4 | 9 | 2100 (≈ 9850 µM) | 0.0065 | NS(=O)(=O)c1cc2cc(O)ccc2o1 | -6 |  | 0.1 | 15 | 
11 | 17 | 80 (≈ 377 µM) | 0.025 | Nc1ccc2cc(S(N)(=O)=O)oc2c1 |  |  |  |  | 
 |  |  | 0.015 | COc1ccc2cc(S(N)(=O)=O)oc2c1 |  |  |  |  | 
 |  | 220 (≈ 865 µM) | 0.011 | CC(=O)Oc1ccc2[nH]c(S(N)(=O)=O)cc2c1 |  |  |  |  | 
 | 10 | 540 (≈ 2380 µM) | 0.0051 | COc1ccc2oc(S(N)(=O)=O)cc2c1 |  |  |  |  | 
 |  |  | 0.0055 | CC(=O)Oc1ccc2cc(S(N)(=O)=O)oc2c1 | -8.8 |  | 0.5 |  | 
4.9 | 23 | 2800 (≈ 13100 µM) | 0.011 | NS(=O)(=O)c1cc2ccc(O)cc2o1 | -5.2 |  | 0.5 |  | 8
 |  | 190 (≈ 744 µM) | 0.0065 | CC(=O)Oc1ccc2oc(S(N)(=O)=O)cc2c1 | -5.7 |  |  |  | 
11 |  | 280 (≈ 1320 µM) | 0.009 | Nc1ccc2oc(S(N)(=O)=O)cc2c1 | -6 |  | 0.5 |  | 
